Source: ChEMBL document CHEMBL5608195, “Identification and biological evaluation of fused tetrahydroisoquinoline derivatives as Wnt/β-catenin signaling inhibitors to suppress colorectal cancer” (Eur J Med Chem, 2024)
pKd: −log10 of the molar value. Activity calls are given as the source filed them. No cut-off for these calls is given here.

Tests used:
[1] = system: RKO; test: Inhibition of colony formation human RKO cells incubated for 24 hrs by crystal violet staining based analysis; assay type: functional, cell-based; conditions: dose 6-10 µM
[2] = Tmax in male ICR (CD-1) mouse at 20 mg/kg, po measured upto 24 hrs by LC-MS/MS analysis; assay type: ADME, organism-based; conditions: in vivo
[3] = Toxicity in male BALB/c mouse xenografted with human HCT-116 cells assessed as effect on serum uric acid level at 10 to 40 mg/kg, ip by biochemical analysis; assay type: organism-based; conditions: in vivo, dose 10-40 mg/kg
[4] = system: HCT-116; test: Antitumor activity against human HCT-116 cells xenografted in male BALB/c mouse assessed as tumor growth inhibition at 10 mg/kg, ip measured every two days for upto 20 days relative to control; assay type: functional; conditions: HCT-116, 480 h, time <= 20 day, read-out: TGI
[5] = molecular target: T1, Heat shock protein HSP90 (Homo sapiens) (UniProt P07900+P08238); test: Induction of thermal stabilization of Hsp90 in human RKO cells at 37 to 82 degree C at 100 uM incubated for 1 hr by thermal shift assay; assay type: cell-based
[6] = system: HCT-116; test: Antitumor activity against human HCT-116 cells xenografted in male BALB/c mouse assessed as tumor growth inhibition at 40 mg/kg, ip measured every two days for upto 20 days relative to control; assay type: functional; conditions: HCT-116, 480 h, time <= 20 day, read-out: TGI
[7] = system: HCT-116; test: Induction of cell cycle arrest in human HCT-116 cells assessed as downregulation of Cyclin A2 protein level by Western blot analysis; assay type: functional, cell-based
[8] = system: RKO; test: Antiproliferative activity against human RKO cells assessed as inhibition of DNA proliferation at 10 uM incubated for 22 hrs by fluorescence based microscopic analysis; assay type: functional, cell-based
[9] = system: RKO; test: Inhibition of Wnt/beta-catenin signaling pathway in human RKO cells assessed as downregulation of beta-catenin expression incubated for 24 hrs by qRT-PCR analysis; assay type: cell-based; conditions: dose <= 10.0 µM
[10] = Toxicity in male BALB/c mouse xenografted with human HCT-116 cells assessed as effect on body weight at 10 to 40 mg/kg, ip measured every two days for upto 20 days; assay type: organism-based; conditions: in vivo, 480 h, dose 10-40 mg/kg, time < 20 day
[11] = system: HCT-116; test: Induction of cell cycle arrest in human HCT-116 cells assessed as downregulation of c-Myc protein level by Western blot analysis; assay type: functional, cell-based
[12] = Binding affinity to recombinant N-terminal GST-tagged human HSP90 (1 to 224 residues) extracted from Escherichia coli BL21 (DE3) cells assessed as dissociation constant by surface plasmon resonance assay
[13] = system: RKO; test: Induction of cell cycle arrest in human RKO cells assessed as upregulation of P21 protein level by Western blot analysis; assay type: functional, cell-based
[14] = system: RKO; test: Induction of cell cycle arrest in human RKO cells assessed as downregulation of Cyclin D1 protein level by Western blot analysis; assay type: functional, cell-based
[15] = system: HCT-116; test: Induction of cell cycle arrest in human HCT-116 cells assessed as downregulation of Cyclin B1 protein level by Western blot analysis; assay type: functional, cell-based
[16] = system: HCT-116; test: Inhibition of Wnt/beta-catenin signaling pathway in human HCT-116 cells assessed as downregulation of beta-catenin expression incubated for 24 hrs by qRT-PCR analysis; assay type: cell-based; conditions: dose <= 10.0 µM
[17] = Toxicity in male BALB/c mouse xenografted with human HCT-116 cells assessed as histological change in spleen at 10 to 40 mg/kg, ip by H and E staining based optical microscopic analysis; assay type: organism-based; conditions: in vivo, dose 10-40 mg/kg
[18] = system: RKO; test: Induction of cell cycle arrest in human RKO cells assessed as downregulation of Cyclin B1 protein level by Western blot analysis; assay type: functional, cell-based
[19] = Cmax in male ICR (CD-1) mouse at 10 mg/kg, ip measured upto 24 hrs by LC-MS/MS analysis; assay type: ADME, organism-based; conditions: in vivo
[20] = system: RKO; test: Induction of cell cycle arrest in human RKO cells assessed as accumulation of cells at G2/M phase incubated for 24 hrs by PI staining based flow cytometry; assay type: functional; conditions: dose 6-10 µM
[21] = system: HCT-116; test: Induction of cell cycle arrest in human HCT-116 cells assessed as accumulation of cells at S phase incubated for 24 hrs by PI staining based flow cytometry; assay type: functional; conditions: dose 6-10 µM
[22] = system: RKO; test: Inhibition of Wnt/beta-catenin signaling pathway in human RKO cells assessed as induction of beta-catenin degradation in presence of MG132 by Western blot analysis; assay type: cell-based
[23] = Bioavailability in male ICR (CD-1) mouse at 10 mg/kg, ip measured upto 24 hrs by LC-MS/MS analysis; assay type: ADME, organism-based; conditions: in vivo
[24] = Toxicity in male BALB/c mouse xenografted with human HCT-116 cells assessed as histological change in kidney at 10 to 40 mg/kg, ip by H and E staining based optical microscopic analysis; assay type: organism-based; conditions: in vivo, dose 10-40 mg/kg
[25] = system: RKO; test: Inhibition of Wnt/beta-catenin signaling pathway in human RKO cells assessed as induction of beta-catenin degradation pretreated with cycloheximide followed by compound addition by Western blot analysis; assay type: cell-based; conditions: time <= 6.0 hrs, TDE = time-dependent effect
[26] = Toxicity in Kunming mouse assessed as behavioural changes at 200 to 400 mg/kg, ip; assay type: organism-based; conditions: in vivo, dose 200-400 mg/kg
[27] = system: RKO; test: Induction of cell cycle arrest in human RKO cells assessed as downregulation of c-Myc protein level by Western blot analysis; assay type: functional, cell-based
[28] = system: HCT-116; test: Antiproliferative activity against human HCT-116 cells assessed as inhibition of DNA proliferation at 10 uM incubated for 22 hrs by fluorescence based microscopic analysis; assay type: functional, cell-based
[29] = system: HCT-116; test: Inhibition of Hsp90/beta-catenin in human HCT-116 cells at 6 to 10 uM incubated for 24 hrs by co-immunoprecipitation analysis; assay type: cell-based; conditions: dose 6-10 µM
[30] = Toxicity in male BALB/c mouse xenografted with human HCT-116 cells assessed as effect on serum creatinine level at 10 to 40 mg/kg, ip by biochemical analysis; assay type: organism-based; conditions: in vivo, dose 10-40 mg/kg
[31] = Toxicity in male BALB/c mouse xenografted with human HCT-116 cells assessed as effect on serum urea level at 10 to 40 mg/kg, ip by biochemical analysis; assay type: organism-based; conditions: in vivo, dose 10-40 mg/kg
[32] = Clearance in male ICR (CD-1) mouse at 5 mg/kg, iv measured upto 24 hrs by LC-MS/MS analysis; assay type: ADME, organism-based; conditions: in vivo
[33] = molecular target: T1, Heat shock protein HSP90 (Homo sapiens); test: Induction of thermal stabilization of Hsp90 in human HCT-116 cells at 37 to 82 degree C at 100 uM incubated for 1 hr by thermal shift assay; assay type: cell-based
[34] = system: HCT-116; test: Induction of cell cycle arrest in human HCT-116 cells assessed as downregulation of Cyclin D1 protein level by Western blot analysis; assay type: functional, cell-based
[35] = Half life in male ICR (CD-1) mouse at 5 mg/kg, iv measured upto 24 hrs by LC-MS/MS analysis; assay type: ADME, organism-based; conditions: in vivo
[36] = Toxicity in male BALB/c mouse xenografted with human HCT-116 cells assessed as histological change in lung at 10 to 40 mg/kg, ip by H and E staining based optical microscopic analysis; assay type: organism-based; conditions: in vivo, dose 10-40 mg/kg
[37] = system: HCT-116; test: Inhibition of Wnt/beta-catenin signaling pathway in human HCT-116 cells assessed as induction of beta-catenin degradation in presence of MG132 by Western blot analysis; assay type: cell-based
[38] = Tmax in male ICR (CD-1) mouse at 10 mg/kg, ip measured upto 24 hrs by LC-MS/MS analysis; assay type: ADME, organism-based; conditions: in vivo
[39] = system: HCT-116; test: Induction of cell cycle arrest in human HCT-116 cells assessed as upregulation of P21 protein level by Western blot analysis; assay type: functional, cell-based

Tmax [2]: 19.8 min
Activity [5]: Active
Cmax [19]: 1450 ng/mL
bioavailability [23]: 97%
clearance [32]: 56.1 mL/min/kg
Activity [33]: Active
half-life [35]: 85.2 min
Tmax [38]: 15 min
SMILES: CC12c3ccc(Cl)cc3CCN1CCc1c2[nH]c2ccc(Cl)cc12 (centres undefined)
inhibition [1]: Dose-Dependent Effect
Activity [3]: Non-Toxic
inhibition in vivo at 10 mg/kg [4]: 57.4%
inhibition in vivo at 40 mg/kg [6]: 71.6%
Activity [7]: Dose-Dependent Effect
Activity [8]: Active
inhibition [9]: Dose-Dependent Effect
Activity [10]: Non-Toxic
Activity [11]: Dose-Dependent Effect
pKd [12]: 4.91
Activity [13]: Dose-Dependent Effect
Activity [14]: Dose-Dependent Effect
Activity [15]: Dose-Dependent Effect
inhibition [16]: Dose-Dependent Effect
Activity [17]: Non-Toxic
Activity [18]: Dose-Dependent Effect
Activity [20]: Dose-Dependent Effect
Activity [21]: Dose-Dependent Effect
inhibition [22]: inactive
Activity [24]: Non-Toxic
inhibition [25]: Tde
Activity [26]: Non-Toxic
Activity [27]: Dose-Dependent Effect
Activity [28]: Active
inhibition [29]: Dose-Dependent Effect
Activity [30]: Non-Toxic
Activity [31]: Non-Toxic
Activity [34]: Dose-Dependent Effect
Activity [36]: Non-Toxic
inhibition [37]: inactive
Activity [39]: Dose-Dependent Effect
